# ChEMBL document CHEMBL3045724, “Synthesis, biopharmaceutical characterization, and antimicrobial study of novel azo dyes of 7-hydroxy-4-methylcoumarin” (2013)
# What was measured:
# Type in all cases: functional
# Aspergillus niger = assay: Antimicrobial activity against Aspergillus niger assessed as diameter of growth inhibition zone
# Escherichia coli = assay: Antimicrobial activity against Escherichia coli assessed as diameter of growth inhibition zone after 48 hr by agar cup plate method
# Salmonella typhi = assay: Antimicrobial activity against Salmonella enterica subsp. enterica serovar Typhi assessed as diameter of growth inhibition zone after 48 hr by agar cup plate method
# Staphylococcus aureus = assay: Antimicrobial activity against Staphylococcus aureus assessed as diameter of growth inhibition zone after 48 hr by agar cup plate method
# Bacillus subtilis = assay: Antimicrobial activity against Bacillus subtilis assessed as diameter of growth inhibition zone after 48 hr by agar cup plate method
SMILES,inhibition zone (IZ) (Aspergillus niger),inhibition zone (IZ) (Escherichia coli),inhibition zone (IZ) (Salmonella typhi),inhibition zone (IZ) (Staphylococcus aureus),inhibition zone (IZ) (Bacillus subtilis)
Cc1c/c(=N/CC/N=c2/cc(C)c3ccc(O)c(/N=N/c4ccccn4)c3o2)oc2c(/N=N/c3ccccn3)c(O)ccc12,>15 mm,>15 mm,>15 mm,>15 mm,>15 mm
Cc1c/c(=N/CC/N=c2/cc(C)c3ccc(O)c(/N=N/c4cccc5ccccc45)c3o2)oc2c(/N=N/c3cccc4ccccc34)c(O)ccc12,>15 mm,>15 mm,>15 mm,>15 mm,>15 mm
CC1(C)S[C@@H]2[C@H](NC(=O)[C@H](N)c3ccccc3)C(=O)N2[C@H]1C(=O)O [AMPICILLIN],10 mm,>15 mm,>15 mm,10 mm,>15 mm
Cc1c/c(=N/CC/N=c2/cc(C)c3ccc(O)c(/N=N/C4=NCCS4)c3o2)oc2c(/N=N/C3=NCCS3)c(O)ccc12,>15 mm,>15 mm,>15 mm,>15 mm,10 mm
Cc1c/c(=N/CC/N=c2/cc(C)c3ccc(O)c(/N=N/c4cccnc4)c3o2)oc2c(/N=N/c3cccnc3)c(O)ccc12,<5 mm,10 mm,>15 mm,>15 mm,>15 mm
Cc1c/c(=N/CC/N=c2/cc(C)c3ccc(O)c(/N=N/c4c(C)n(C)n(-c5ccccc5)c4=O)c3o2)oc2c(/N=N/c3c(C)n(C)n(-c4ccccc4)c3=O)c(O)ccc12,>15 mm,10 mm,–,10 mm,>15 mm
Cc1c/c(=N/CC/N=c2/cc(C)c3ccc(O)c(/N=N/c4ccncc4)c3o2)oc2c(/N=N/c3ccncc3)c(O)ccc12,>15 mm,>15 mm,10 mm,>15 mm,10 mm
CN[C@@H]1[C@H](O[C@H]2[C@H](O[C@H]3[C@H](O)[C@@H](O)[C@H](N=C(N)N)[C@@H](O)[C@@H]3N=C(N)N)O[C@@H](C)[C@]2(O)C=O)O[C@@H](CO)[C@H](O)[C@H]1O [STREPTOMYCIN],>15 mm,10 mm,>15 mm,>15 mm,>15 mm
